This is an account of results in US4515781A, “2',5'-Riboadenylate-morpholinoadenylate nucleotides” (The United States of America as represented by the …, priority 1983, dated 1985).

The subject of data set [1] is antip5'A2'p5'A2'p5'Aserum. The experiment in a line: Reactivity of 2',5'-oligoadenylates with antibody (enzyme-linked immunoassay). The class given is binding. The following applies: for IC50: enzyme-linked immunoassay, read-out: IC50, concentration required to achieve a 50% inhibition of reactivity with antip5'A2'p5'A2'p5'Aserum.
Excerpt: ^a Concentration in nanomolar required to achieve a 50% inhibition of
reactivity with antip5'A2'p5'A2'p5'Aserum in an enzymelinked immunoassay.
The test system of data set [2] is protein synthesis in mouse L cell extracts programmed by encephalomyocarditis virus RNA. Description: Inhibition of protein synthesis (translation) in extracts of mouse L cells programmed with encephalomyocarditis virus RNA. The data set is classed as biochemical. Conditions: tetramer (12) alone. How it is done: (§1) The preparation of cell extracts and the techniques and conditions of cell-free protein synthesis in extracts of interferon-treated or untreated mouse L cells have been described elsewhere.
(§2) This observation provided a relatively simple approach to determine if a given nucleotide or oligoribonucleotide is capable of significant binding to the 2-5A-activated ribonuclease. For this reason, the (2'→5')oligoadenylates 5'-monophosphates, 11 and 12, were evaluated first for their ability to block the translational inhibitory effects of ppp5'A2'p5'A2'p5'A in extracts of mouse L cells programmed by encephalomyocarditis virus RNA. In the experiment, the 2-5A trimer, ppp5'A2'p5'A2'p5'A, was added in varying concentrations, with or without the tetranucleotide 5'-monophosphate inhibited translation with a concentration for half-maximal response of ~2×10^-9 M in agreement with other values in the literature. However, when 12 was also present at a concentration of 8×10^-5 M, there was at least a 1000-fold increase in the concentration of 2-5A trimer triphosphate required to bring about a half-maximal inhibition of protein synthesis.

Data set [3] relates to 2-5A-activated ribonuclease (translational inhibitory effects of ppp5'A2'p5'A2'p5'A). The experiment in a line: Antagonism of 2-5A trimer triphosphate translational inhibition in mouse L cell extracts. The data set is classed as biochemical. As for the experimental part:
as §1
as §2, with “synthesis. […]” for “synthesis.”

Data set [4] deals with 2-5A-dependent endoribonuclease. The experiment in a line: Prevention of 2-5A-activated degradation of [3H]-encephalomyocarditis virus RNA in extracts of mouse L cells. The class given is biochemical. From the text: (§3) To ascertain if the 2'-terminally modified (2'→5')oligonucleotides prevented the protein synthesis inhibitory action of 2-5A by the same mechanism as does p5'A2'p5'A2'p5'A (i.e., by preventing the activation of the 2-5A-dependent endoribonuclease), the 2-5A-enhanced degradation of [^3 H]-encephalomyocarditis virus RNA was followed in extracts of mouse L cells in the presence or absence of the modified tetramer monophosphate (12). The 2-5A-activated degradation of encephalomyocarditis virus RNA was prevented by 12; furthermore, there was good agreement between the results since in both instances a concentration of 8×10^-5 M 12 caused approximately a 1000-fold increase in the concentration of ppp5'A2'p5'A2'p5'A needed to effect 50% of the maximum inhibition.

Data set [5] concerns poly(I)·poly(C) action (2-5A synthetase-endonuclease system). Description: Antagonism of poly(I).poly(C) protein synthesis inhibition in extracts of interferon-treated mouse L cells. The data set is classed as biochemical.
Excerpt: as §1
This observation implied that the inhibitory action of poly(I)·poly(C) is mediated chiefly by the 2-5A synthetase-endonuclease system. […] As observed previously with p5'A2'p5'A2'p5'A, the reversal of inhibition of poly(I)·poly(C) was not complete.

A further data set has as its system 2-5A synthetase. The experiment in a line: Kinetics of 2-5A synthesis in the presence of compound 11 or 12. The data set is classed as biochemical, mouse. The following applies: standard synthetase assay conditions. As for the experimental part:
Incubation was at 30° for the designated times at which aliquots (35 μL) were removed and diluted 10× in cold H2 O. These diluted reaction mixtures were frozen at -90° until analysis.
Reaction mixture were analyzed by thin layer chromatography by spotting 2 μL of the diluted reaction mixture on a plastic PEI cullulose plate (E. Merck). The plate was developed first with solvent system D and then three times with solvent system C. […] A template of the developed film was made with aid of tracing paper, and this was used to locate the corresponding radioactive spots on the tlc plate. The plate was cut according to the positions indicated by the template, and the resulting pieces were counted with 10 mls of fluor in a standard scintillation vial. The percentage of each radioactive component by the gross radioactivity associated with all the components visualized on tlc. The position of ATP, pp5'A2'p5'A,pppA2'p5'A2'p5'A, etc. were determined from authentic markers.

Data set [6] in a line: Stability of 2',5'-oligoadenylates in mouse L-cell extracts, immunochemical study. The class given is in vitro ADME. As for the experimental part: Oligoadenylates at a final concentration of 400 nM were incubated under protein synthesis conditions (minus [^3 H]-leu and EMCV RNA) at 30° C. for 0-6 hours. Samples were removed diluted with an equal volume of phosphate-buffered saline (PBS, 0.01M sodium phosphate, pH 7.4, 0.14M NaCl) with added 0.05% polyoxyethylene sorbitan monolaurate, (PSM) and then heated at 95° C. for 10-15 minutes. After cooling, the samples were centrifuged for 1 min. at room temperature in an Eppendorf microfuge. The supernatant samples were serially diluted (three-fold) in 0.05% PSM prior to analysis in a competitive enzyme-linked antibody assay.
In a second series of experiments, the degradation of both the 5'-monophosphates and 5'-triphosphate of the terminally modified oligomers was compared to the degradation of the corresponding unmodified mono- and tri-phosphates. In this case, however, the course of reaction was followed using an immunoenzymometric assay for 2-5A and its derivatives. The antiserum employed in this study was inhibited 50% by both the unmodified and 2'-terminally modified 2',5'-oligoadenylates in the nanomolar range, the tetramer oligoadenylates being 2-5 times more reactive than the corresponding trimer species (Table 3, experimental). In contrast, the dimers were much less reactive, requiring concentrations of about 300 nM to achieve this same level of inhibition. […]

The test system of data set [7] is 2-5A-dependent endoribonuclease (RNase L). The experiment in a line: 2-5A-enhanced degradation of [3H]-encephalomyocarditis virus RNA in cell extracts (activation of RNase L). The class given is biochemical, mouse.
Excerpt: as §3
The enhanced activity of the 2'-terminally modified tetramer triphosphate 13 also was observed when the degradation of [^3 H]-encephalomycarditis virus RNA in cell extracts was examined. Modified tetramer triphosphate (13) enhanced degradation of labeled RNA with a concentration of 9×10^-11 M necessary to elicit a half-maximal response compared to ppp5'A2'p5'A2'p5'A which required a concentration of 9×10^-10 M to elicit a half-maximal response. In addition, there was good correlation between these values and the corresponding concentrations response for inhibition of protein synthesis.

In another data set the test system is reticulocyte lysate. The following applies: compared to tetramer triphosphate; cited from earlier work.

Entries after “also recorded” stand apart in the source; their conditions may differ. Bounds are passed on as bounds.

As for `Nc1ncnc2c1ncn2[C@@H]1O[C@H](CO)[C@@H](O)[C@H]1O` [adenosine], the “antibody inhibition by mononucleotides and adenosine” value in data set [1] is “inhibitory only at millimolar concentrations”.

As for “5'-monophosphoryladenylyl-(2'→5')-adenylyl-(2'→5')adenylyl(2'→6')(3'-aza-4'-hexyl-1',2',3',4'-tetradeoxyhexopyranos-1'-yl)adenine [Compound 12]”, the “effect on translation by itself” value in data set [2] is “no significant effect on translation”. In addition, the “effectiveness as antagonist of 2-5A action (in words)” value in data set [3] is listed as “somewhat more effective than the trimer 11 in preventing 2-5A action”. Besides, the “increase in the concentration of 2-5A trimer triphosphate required for half-maximal inhibition of protein synthesis” value in data set [3] (12 at 8×10^-5 M) is given as at least 1000 fold. In [4], the “prevention of 2-5A-activated degradation of encephalomyocarditis virus RNA” value is reported as “prevented”. The “increase in the concentration of ppp5'A2'p5'A2'p5'A needed to effect 50% of the maximum inhibition” value in data set [4] (8×10^-5 M 12) was about 1000 fold. The “prevention of protein synthesis inhibition caused by poly(I).poly(C) (in words)” value in data set [5] is “not complete”. The “potency in preventing the inhibitory action of poly(I).poly(C) (in words)” value in data set [5] (11 vs 12) is listed as “approximately equal potency”. The “effect on the rate of synthesis of 2-5A” value with 2-5A synthetase is “neither 11 nor 12 affected the rate of formation of 2-5A”; with 2-5A synthetase (listed as "tailed" (pA)4), “neither "tailed" (pA)3 nor "tailed" (pA)4 had any significant effect on the rate of synthesis”. Also, the IC50 in data set [1] worked out at 1 nM. Further, the “stability in cell-free extracts relative to unmodified 2',5'-oligoadenylates” value in data set [6] is given as “markedly more stable in cell-free extracts than the unmodified 2',5'-oligoadenylates”. For the same compound, the “antibody reactivity during incubation” value in data set [6] (4×10^-7 M oligomer, 6 hours of incubation) is listed as “did not decrease even after 6 hours of incubation; also recorded: increased slightly with time”.

As to ppp5'A2'p5'A2'p5'A, in [7], the “activity as activator of RNase L (in words)” value is recorded as “quite similar as activators of RNase L”. For the same compound, in [1], the IC50 stood at 18 nM. Moreover, in the data set with reticulocyte lysate, the “biological activity in reticulocyte lysate” value was “anomalously low compared to tetramer triphosphate”.
